Assay results as given in patent US20030119800A1, “Bone anabolic compounds and methods of use” (priority 2001, published 2003).
Starred links: 1 amine or outer side, 2 acyl side, 3 side chain; linkers in the order of their positions; H or OH if unused. Positions of bridges follow the written chain, without caps; N, C: chain ends. Non-standard residues stand in square brackets, D forms with d. Residues, ends and D or L forms follow the SMILES beside them. Chains are numbered I, II in the order given. Actinocin(9to1) = Cc1c2oc3c(C)ccc(C(=O)[*:1])c3nc-2c(C(=O)[*:2])c(N)c1=O; NMeV = CN[C@H](C(=O)O)C(C)C; Sar = CNCC(=O)O

Tests used:
[1] = tested on: calvaria-derived murine osteoblastic cells; experiment: Etoposide-induced apoptosis of calvaria-derived osteoblastic cells; assay type: cell-based, mouse; conditions: for difference in potency in osteoblasts from one sex versus the other: cell preparations from females or males; for etoposide-induced apoptosis in primary cultures of osteoblasts: cells from female or male mice, dose dependent manner; for effect of synthesis inhibitor on the protective effect of E2 on etoposide-induced apoptosis: murine calvaria derived osteoblasts, doses not affecting cell viability, data not shown
Source text: HeLa cells were co-transfected with reporter constructs in which SRE or AP-1 drive the expression of secreted alkaline phosphatase (SEAP), along with the wild type ERα (A and B); or its ligand binding domain (E), or E fused to a membrane (E-Mem) or nuclear (E-Nuc) localization sequence (A). A dominant negaitve (dn) MEK or dn Jnk were also introduced into a subset of the ERα transfected cells. […] In FIGS. 1A and 1B, 100% indicates activity in vehicle treated cells. (C) HeLa cells were co-transfected with the ERα and nEGFP and wild type or dn mutants of the indicated transcription factors. […] (D) HeLa cells (upper panel) were transiently co-transfected with the ERα, a nonphosphorylatable dn mutant of Bad. Calvaria-derived murine osteoblastic cells (lower panel) were pre-treated with the P13K inhibitor wortmannin. Cells were then treated as in (C). […] (E) Proposed model for a kinase-mediated non-genotropic regulation of gene transcription and apoptosis by sex steroids.
(§1) Osteoblastic cells (A) were isolated from calvaria of neonatal female or male mice, the sex of which was determined by Southern blot analysis of liver DNA with a Y chromosome specific cDNA probe; and cultured as previously described. The ability of the indicated steroids to protect against etoposide induced apoptosis was determined as in FIG. 1D, lower panel. (B) Osteoclasts were generated in bone marrow cultures from adult female or male mice, and then treated with vehicle or the indicated concentrations of steroids for 24 hours at which point the number of cells undergoing apoptosis was determined. Representative results from 1 of 4 females and 1 of 4 males examined are shown. Each point represents the mean of triplicate determinations±SD. *p<0.05 vs. vehicle, by ANOVA. (C & D) Eight-month old Swiss Webster mice (n=8-10 per group) were sham-operated, ovariectomized (OVX) or orchidectomized (ORX). […] BMD and wet uterine or seminal vesicle weight was determined six weeks later. Bars indicate means±SD. *p<0.05 vs OVX or ORX.
(§2) Quantification of apoptotic cells in vitro: Apoptosis of HeLa cells or calvaria-derived osteoblastic cells was quantified by direct visualization of changes in nuclear morphology or by trypan blue staining, respectively, as previously described (Kousteni et al, 2001). Apoptosis of osteoclasts, derived from bone marrow cells cultured with 30 ng/ml M-CSF and 30 ng/ml soluble RANK ligand, was quantified by measuring caspase 3 activity as previously described (Weinstein et al, 2002).

[2] = tested on: osteoclasts generated in bone marrow cultures from adult female or male mice; experiment: Osteoclast apoptosis in bone marrow derived cultures; assay type: cell-based, mouse
Experimental: as §1
FIG. 8 illustrates the pro-apoptotic effect of sex steroids on osteoclasts requires Src/ERK signaling. […] After 24 hours, the percentage of apoptotic osteoclasts was determined as in FIG. 7.
as §2

[3] = tested on: OVX or ORX Swiss Webster mice; experiment: Gonadectomized (OVX or ORX) Swiss Webster mice with 60-day slow release pellets: bone and reproductive tissues; assay type: in vivo, mouse; conditions: for gonadectomy-induced changes (osteoblast apoptosis, loss of BMD, osteoblastogenesis and osteoclastogenesis): replacement dose pellets (E2 0.025 mg, DHT 10 mg), OVX or ORX, irrespective of sex
Experimental: as §1
FIG. 9 illustrates the equivalence of the skeletal actions of estrogens and androgens in female and male mice. […] Six weeks later, osteoblast apoptosis in histologic sections of the vertebrae (A), osteoblastogenesis and osteoclastogenesis in ex vivo bone marrow cultures (B and C), and serum osteocalcin concentration (D) were determined. Bars indicate means±SD, *p<0.05 vs OVX or ORX.
Global, spine and hindlimb BMD was determined at both 4 and 6 weeks later in the experiment with the 8 month old females, and at 6 weeks only in the experiments with the 6 month old females and males (A, B and C). The 6 week BMD data in females (B) represent pooled values from the two experiments with the 6- and the 8-month old mice.
Longitudinal undecalcified sections of the distal femur are shown in (B). […] Osteoblast apoptosis in sections of L1-L4 vertebrae from females (8 month old) and males (C).
Histomorphometric analysis of L1-L4 vertebrae from 6 month old females (A-F) and pooled serum osteocalcin levels from the 6 and 8 month old females (G). […] The ANGELS compounds described herein are useful for maintaining and/or increasing bone mass and/or strength and/or density in mammals. Mammals, preferably humans, in need of such compounds can include those suffering from such conditions as female osteoporosis (post menopausal), male osteoporosis, glucocorticoid-induced osteoporosis, immobilization and aging-related osteoporosis, idiopathic or juvenile osteoporosis, transplantation-related osteoporosis, and alveolar ridge bone loss. In addition, the compounds described herein are particularly useful for administration to subjects that are unable or unwilling to tolerate therapies that have a masculinizing or feminizing effect. For example, subjects such as breast cancer patients (especially those with bone metastasis on gonadotropin […] hormone (GnRH) or ovariectomized), prostrate cancer patients (especially those on GnRH/castration therapy), and myeloma/lymphoma patients are frequently poor candidates for treatment with estrogen or androgens because of the risk of a recurrence of the underlying condition, e.g., cancer.
Wet uterine (A) or seminal vesicle weight (B) of female and male mice described in FIG. 11. […] Note the following morphologic differences in the uteri of OVX- and OVX+4-estren-3α,17β-diol-treated mice as compared to uteri from sham-operated and OVX+E2-treated mice: thin and atrophic columnar epithelium; compact stroma; decreased number of glands; decreased nucleus to cytoplasmic ratio in the columnar epithelial, endometrial stroma, and myometrial cells; and absence of mitotic activity. (D) Proliferation of MCF-7 cells was determined by ^3H-thymidine uptake.
For these studies, mature Swiss Webster mice (8 month old), n=8-10 per group, were sham-operated or gonadectomized (GNDX). […]

DERKO mice = conditions: mouse, in vivo; cited from earlier work
[4] = tested on: cells from mice lacking both ERα and ERβ (DERKO); conditions: cited from earlier work
Bad = experiment: E2-induced phosphorylation of Bad; assay type: cell-based; conditions: studies not shown (Kousteni et al, 2002)
ERα = target: T1, ERα (Homo sapiens, UniProt P03372); experiment: SRE-SEAP and AP-1-SEAP reporter assays in HeLa cells transfected with ERα; assay type: cell-based; conditions: steroids 10^−8 M for 15 minutes (E2 as little as five minutes), SEAP six hours later
T1 construct: HeLa cells transfected with the full length ERα; expressed in transfected cells; host or cells: HeLa
T1 sequence (P03372 whole entry): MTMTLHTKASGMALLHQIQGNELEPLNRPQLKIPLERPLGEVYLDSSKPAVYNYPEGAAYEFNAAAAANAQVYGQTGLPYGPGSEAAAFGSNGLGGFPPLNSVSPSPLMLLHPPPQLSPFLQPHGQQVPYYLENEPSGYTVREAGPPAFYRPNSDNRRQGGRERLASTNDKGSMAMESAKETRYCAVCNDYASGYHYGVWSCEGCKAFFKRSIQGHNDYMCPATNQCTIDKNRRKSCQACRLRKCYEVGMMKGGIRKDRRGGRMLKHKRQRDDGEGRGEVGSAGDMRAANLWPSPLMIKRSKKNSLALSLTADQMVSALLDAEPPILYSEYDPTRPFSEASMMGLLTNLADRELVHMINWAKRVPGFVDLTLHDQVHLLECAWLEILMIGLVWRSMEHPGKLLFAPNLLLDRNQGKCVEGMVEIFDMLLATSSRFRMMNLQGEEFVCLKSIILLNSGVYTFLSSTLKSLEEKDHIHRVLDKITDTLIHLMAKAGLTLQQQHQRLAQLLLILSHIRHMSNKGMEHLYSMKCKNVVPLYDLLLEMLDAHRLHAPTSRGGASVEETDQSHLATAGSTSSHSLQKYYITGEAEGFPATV
Experimental: HeLa cells were co-transfected with reporter constructs in which SRE or AP-1 drive the expression of secreted alkaline phosphatase (SEAP), along with the wild type ERα (A and B); or its ligand binding domain (E), or E fused to a membrane (E-Mem) or nuclear (E-Nuc) localization sequence (A). A dominant negaitve (dn) MEK or dn Jnk were also introduced into a subset of the ERα transfected cells. Cells were exposed to vehicle or the indicated steroids (10^−8M) for 15 minutes. The steroid containing media were then removed, the cells were washed twice, and the cultures were continued in fresh medium without steroids. Supernatants were collected six hours later and SEAP activity was assayed. In FIGS. 1A and 1B, 100% indicates activity in vehicle treated cells. (C) HeLa cells were co-transfected with the ERα and nEGFP and wild type or dn mutants of the indicated transcription factors. […] (D) HeLa cells (upper panel) were transiently co-transfected with the ERα, a nonphosphorylatable dn mutant of Bad. […] Cells were then treated as in (C).
Transient transfections and reporter assays: HeLa cells were transfected using Lipofectamine Plus (Life Technologies Inc.). For reporter assays (luciferase or secreated alkaline phosphatase SEAP), serum-starved cells were treated with the indicated steroids for 15 min after which the steroid-containing media were removed, cells washed twice with 1% BSA in PBS, and fresh media without steroid were added. SEAP or luciferase assays were performed 6 h later using the Great EscAPe SEAP Chemiluminescence Kit (Clontech, Palo Alto, Calif.) or the dual luciferase Kit (Promega, Madison, Wis.), respectively, according to the manufacturer's instructions. Both reporter activities were normalized to renilla luciferase activity.

In the case of `C[C@]12CCC(=O)C[C@@H]1CC[C@@H]1[C@@H]2CC[C@]2(C)[C@@H](O)CC[C@@H]12` [DHT, dyhydrotestosterone], the “difference in potency in osteoblasts from one sex versus the other” value [1] is reported as “no difference”, the “etoposide-induced apoptosis in primary cultures of osteoblasts” value [1] is reported as “attenuated etoposide-induced apoptosis” and the “difference in potency in osteoclasts from females and males” value [2] is reported as “no difference”. For the same molecule, the “bone compression strength in the vertebrae, male mice” value ([3]; L5, ORX) was “equally effective”, the “BMD values in the spine versus the untreated ORX group” value ([3]; ORX males, 6 weeks) was “not” and the wet uterine weight ([3]; OVX females, pellets DHT 10 mg or 4-estren-3α,17β-diol 7.6 mg) was “did restore”. The “gonadectomy-induced changes (osteoblast apoptosis, loss of BMD, osteoblastogenesis and osteoclastogenesis)” value [3] was “effectively prevented”.
For `C[C@]12CC[C@@H]3c4ccc(O)cc4CC[C@H]3[C@@H]1CC[C@@H]2O` [E2, 17β-estradiol], the “bone loss following OVX in DERKO mice” value (DERKO mice) is given as “prevented”, the “difference in potency in osteoblasts from one sex versus the other” value [1] is given as “no difference” and the “etoposide-induced apoptosis in primary cultures of osteoblasts” value [1] is given as “attenuated etoposide-induced apoptosis”. The “difference in potency in osteoclasts from females and males” value [2] was “no difference”, the “effect on the bone marrow cavity” value ([3]; 4-estren-3α,17β-diol 7.6 mg pellet, E2 pharmacologic dose 100× the replacement dose) was “closing the bone marrow cavity” and the “longitudinal undecalcified sections of the distal femur” value ([3]; 4-estren-3α,17β-diol at 300× ERT versus vehicle or E2 1× ERT, E2 at 100× ERT) was “cancellous sclerosis”. For the same molecule, the seminal vesicle weight ([3]; ORX males, pellets E2 0.025 mg or 4-estren-3α,17β-diol 7.6 mg) was “failed to restore”, the osteoclast number ([3]; as compared to the OVX group) was “suppressed” and the “rate of bone formation” value ([3]; as compared to the OVX group) was “suppressed”. For the same molecule, the “gonadectomy-induced changes (osteoblast apoptosis, loss of BMD, osteoblastogenesis and osteoclastogenesis)” value [3] was “effectively prevented”, the “ERK phosphorylation in DERKO cells” value [4] was “stimulates” and the “osteoblast apoptosis in DERKO cells” value [4] was “prevents”. The “osteoclast apoptosis in DERKO cells” value [4] was “stimulates”.
For `C[C@]12CC[C@@H]3c4ccc(O)cc4C[C@@H](CCCCCCCCC[S+]([O-])CCCC(F)(F)C(F)(F)F)[C@H]3[C@@H]1CC[C@@H]2O` (stereo partly drawn) [ICI 182,780], the “effect of antagonist on the effects of E2 or DHT on the lifespan of osteoblasts” value [1] is listed as “blocked”, the “effect of antagonist on the effects of E2 or DHT on the lifespan of osteoclasts” value [2] is listed as “blocked” and the “effect of antagonist on the effects of E2 in the DERKO cells” value [4] is listed as “prevented”.
With `COc1cccc(-c2cc(=O)c3ccccc3o2)c1N` [PD98059] the “effect of inhibitor on E2-induced phosphorylation of Bad” value (Bad) was “abolished”.
With `Cc1ccc(-c2nn(C(C)(C)C)c3ncnc(N)c23)cc1` [PP1] the “effect of inhibitor on the pro-apoptotic effects of the sex steroids and 4-estren-3α,17β-diol on osteoclasts” value ([2]; pre-treatment for 1 hour prior to E2 or DHT) was “abrogated”.
With `C[S+]([O-])c1ccc(-c2nc(-c3ccncc3)c(-c3ccc(F)cc3)[nH]2)cc1` (stereo not drawn) [SB203580] the “effect of kinase inhibitor on the anti-apoptotic effect of E2 and of 4-estren-3α,17β-diol” value ([1]; FIG. 1D, pre-treated calvaria-derived murine osteoblastic cells) was “not”.
For `Cc1c2oc3c(C)ccc(C(=O)N[C@@H]4C(=O)N[C@H](C(C)C)C(=O)N5CCC[C@H]5C(=O)N(C)CC(=O)N(C)[C@@H](C(C)C)C(=O)O[C@@H]4C)c3nc-2c(C(=O)N[C@@H]2C(=O)N[C@H](C(C)C)C(=O)N3CCC[C@H]3C(=O)N(C)CC(=O)N(C)[C@@H](C(C)C)C(=O)O[C@@H]2C)c(N)c1=O` [actinomycin D] (I: T[dV]P[Sar][NMeV] / II: T[dV]P[Sar][NMeV]; ester I:1-I:C, II:1-II:C; linker I:N-II:N via Actinocin(9to1)), the “effect of synthesis inhibitor on the protective effect of E2 on etoposide-induced apoptosis” value [1] was “abrogated”.
With `C[C@@H]1C[C@@H]([C@H](O)CC2CC(=O)NC(=O)C2)C(=O)[C@@H](C)C1` [cyclohexamide] the “effect of synthesis inhibitor on the protective effect of E2 on etoposide-induced apoptosis” value [1] was “abrogated”.
In the case of `c1cn[nH]c1` [pyrazole], the “AP-1-dependent transcriptional activity (AP-1-SEAP)” value (ERα) is reported as “not” and the “SRE-dependent transcriptional activity (SRE-SEAP)” value (ERα) is reported as “not”.
